Source: article PMC6921279 (Frontiers in Endocrinology, 2019)

How the values were obtained:
EGFR Tyr845 = test: CRF-induced EGFR phosphorylation at Tyr845 in COS-7 cells expressing HA-CRF1R; assay type: cell-based; details: 100 nM wortmannin, 30 min pretreatment; 100 nM CRF, 5 min
Protocol: COS-7 cells (from the American Type Culture Collection) were cultured at 37°C in a humidified atmosphere of 95% air, 5% CO2, in DMEM supplemented with 10% FBS, 100 μg/ml streptomycin, and 100 units/ml penicillin (COS-7 growth medium). Transient transfections were performed using LipofectAMINE (Life Technologies: Gaithersburg, MD) as described previously ([27]). Cells were seeded at 8 × 10^5 cells/10-cm dish in COS-7 medium and cultured for 3 days before transfection. COS-7 cells were transfected in 5 ml/dish OptiMEM containing 10 μg/ml LipofectAMINE with empty vector, pcDNA3 encoding the HA-CRF1R or the HA-CRF1R-Δ386 mutant. […]
(§1) The protocols for measuring total and phosphorylated ERK1/2, c-Src, PYK2, Akt, and EGFR have been previously published ([28], [29]). […] The labeled bands were quantified using the Quantity One 4.6.3 software program (Bio-Rad).
Figure 6 CRF mediates EGFR phosphorylation at Tyr^845 and activation of PYK2. […] Total cell lysates were separated by SDS-PAGE and analyzed by immunoblotting with anti-p-EGFR Tyr^845 (A,B) or anti-p-PYK2 Tyr^402 (E), as described in Materials and Methods. EGFR and ERK1/2 phosphorylation were quantitated by densitometry, and mean values were plotted from three to five independent experiments. […] Src and EGFR were quantitated by densitometry, and mean values were plotted from three independent experiments. […]

[1] = tested on: EGF-stimulated Akt phosphorylation; test: Modulation of EGF-stimulated Akt phosphorylation in COS-7 cells; assay type: cell-based; details: wortmannin 100 nM, 30 min pretreatment; 10 ng/ml EGF, 10 min
Protocol: COS-7 cells (from the American Type Culture Collection) were cultured at 37°C in a humidified atmosphere of 95% air, 5% CO2, in DMEM supplemented with 10% FBS, 100 μg/ml streptomycin, and 100 units/ml penicillin (COS-7 growth medium). Transient transfections were performed using LipofectAMINE (Life Technologies: Gaithersburg, MD) as described previously ([27]). Cells were seeded at 8 × 10^5 cells/10-cm dish in COS-7 medium and cultured for 3 days before transfection. COS-7 cells were transfected in 5 ml/dish OptiMEM containing 10 μg/ml LipofectAMINE with empty vector, pcDNA3 encoding the HA-CRF1R or the HA-CRF1R-Δ386 mutant. […] After replacing the transfection medium with fresh growth medium, transfected COS-7 cells were cultured for 1 day. […]
as §1
Figure 8 Involvement of the PI3K pathway in CRF-stimulated ERK1/2 phosphorylation. […] Total cell lysates were separated by SDS-PAGE and analyzed by immunoblotting with anti-p-Akt Ser^473 (A) or anti-p-ERK1/2 Thr^202/Tyr^204 (A–C), as described in Materials and Methods. Akt and ERK1/2 phosphorylation were quantitated by densitometry, and mean values were plotted from three to five independent experiments. […]

COC[C@H]1OC(=O)c2coc3c2[C@@]1(C)C1=C(C3=O)[C@@H]2CCC(=O)[C@@]2(C)C[C@H]1OC(C)=O [wortmannin]
effect on CRF-induced EGFR Tyr845 phosphorylation (EGFR Tyr845): had no effect on CRF-induced phosphorylation of EGFR at Tyr^845
effect on EGF-stimulated Akt phosphorylation [1]: abolished the stimulatory action of EGF on Akt
